Key:
[1] = test system: NMDA receptor-mediated synaptic transmission in hippocampal slices; conditions: reference antagonists, 0 Mg++, general statement; cited from earlier work
[2] = test system: glutamate-evoked contractions of the guinea pig ileum; assay: Test B: glutamate-evoked contractions of the guinea pig ileum; type: cell-based; conditions: Cavia porcellus; twitch responses evoked with 100 micromolar glutamate
From the text: (§1) The actions of compounds of formula I as antagonists at the glycine receptor of the NMDA receptor complex can be shown by one or more standard tests such as the [^3 H]-glycine binding assay (Test A), by functional assays in vitro such as tests for measuring glutamate-evoked contractions of the guinea pig ileum (Test B) and/or tests for measuring antagonism of NMDA-induced evoked response in hippocampal slices (Test C), and by tests in vivo such as ischemia induced by carotid occlusion in the gerbil model (Test D).
For glutamate-evoked contractions of the guinea pig ileum, the methodology is as described previously (Luzzi et. al., Br. J. Pharmacol., 95, 1271-1277 (1989)). The longitudinal muscle and associated myenteric plexus are removed and placed in oxygenated modified Krebs-Henseleit solution (118 millimolar NaCl, 4.7 millimolar KCl, 2.5 millimolar CaCl2, 1.2 millimolar KH2 PO4, 25 millimolar NaHCO3, and 11 millimolar glucose). Tissues are suspended on glass rods in organ baths under a resting tension of 0.5 g. After an initial depolarization with 80 millimolar potassium ion to remove possible blockade of the NMDA receptor channel complex with magnesium ion, twitch responses are evoked with 100 micromolar glutamate. Isometric mechanical responses are recorded. Tissues are equilibrated for at least 2 hours prior to addition of compounds.
A dose response curve for the effect of the unknown on the magnitude of the glutamate-evoked contractions is generated. Glutamate-evoked contractions are generated at 20 minute intervals, with the test compound added 5 minutes before the glutamate. The magnitude of the contraction with each dose of the unknown is expressed relative to the control, the third contraction evoked by 100 micromolar glutamate alone in the same tissue bath. The IC50 is obtained from a least-squares regression of a logit-log transformation of the data.
After the last contraction for the dose-response curve, 100 micromolar glycine is added to the bath 10 minutes after the previous addition of glutamate. […]

[3] = test system: NMDA receptor-mediated synaptic transmission in hippocampal slices; assay: Test C: hippocampal slice test (HST), antagonism of NMDA-induced evoked response; type: cell-based, male Sprague-Dawley rats; conditions: 0 Mg++; for inhibition of the secondary PSs (antagonism) / reversal of the inhibition by D-serine: Example 1 at 15.2 μM, Example 4 at 10 μM; for concentration at which glycine antagonism is exhibited: evaluated at a multiple of the Test B IC50
From the text: as §1
The characterization of a compound as a glycine antagonist in the hippocampal slice test (HST) is dependent on (1) the ability of the compound to inhibit NMDA receptor-mediated synaptic transmission in hippocampal slices and (2) the subsequent reversal of these inhibitory effects by D-serine.
The procedure for the HST is as follows. Transverse hippocampal slices are obtained from male Sprague-Dawley rats weighting 80-150 gm. The rats are decapitated and the brains quickly removed and placed in cold Krebs-Ringersolution which contains (in millimolar) NaCl (122.6), NaHCO3 (26.2), KCl (5.4), MgSO4 (2.0), NaH2 PO4 (1.2), CaCl2 (2.0), and D-glucose (10.0). The hippocampus is dissected free from surrounding tissues, and 495 microns thick slices are cut and immediately transferred to a humidified static interface chamber with a 95% O2 :5% CO2 atmosphere at room temperature. Following a 1-hour equilibration period, slices are placed one at a time into a small perfusion chamber where they are completely submerged in continuously flowing oxygenated 2 millimolar Mg++ perfusate (4 mL/min) at 33° C. and allowed to equilibrate for 10 to 15 min.
For the electrophysiology part of the experiments, bipolar tungsten stimulating electrodes are positioned in the stratum radiatum of the CA3 cell body region of the hippocampus and a single-barrel glass microelectrode filled with Krebs-Ringer solution is positioned in the CA1 cell body region. Low frequency stimulation is then applied to area CA3 which evokes a primary population spike (PS) recorded from CA1. The primary PS represents the summation of a multiple of synaptic potentials mediated via the quisqualate receptor. The stimulus intensity is adjusted to evoke a PS of 1-4 mV amplitude and is maintained at this intensity throughout the experiment.
When the perfusion medium is then changed from 1 millimolar Mg++ to one containing 0 Mg++, the primary PS is followed by the appearance of many secondary PSs. The appearance of the secondary PSs are attributed to the unmasking of NMDA-mediated synaptic events in 0 Mg++. […] The effects of directly acting NMDA and indirectly acting NMDA (ie, glycine) receptor antagonists can also be differentiated by the ability of D-serine to reverse this inhibition.

[4] = target: T1, glycine receptor of the NMDA receptor complex (Rattus norvegicus, UniProt P35439); assay: Test A: [^3 H]-glycine binding assay; design: species or system male Sprague-Dawley rats; conditions: 20 nanomolar [^3 H]-glycine, rat cortical/hippocampal synaptic membranes, pH 7.1, 30 minutes at 4° C.
T1 construct: neuronal synaptic membranes are prepared from adult (about 250 g) male Sprague-Dawley rats; from tissue; host or cells: cerebral cortices and hippocampi of adult male Sprague-Dawley rats, synaptic membranes
From the text: as §1
In the [^3 H]-glycine binding assay, neuronal synaptic membranes are prepared from adult (about 250 g) male Sprague-Dawley rats. Freshly dissected cortices and hippocampi are homogenized in 0.32M sucrose (110 mg/mL). Synaptosomes are isolated by centrifugation (1000 xg, 10 min), the supernatant is pelleted (20,000 xg, 20 min) and resuspended in double-distilled water. The suspension was centrifuged for 20 minutes at 8,000 xg. The resulting […] and buffy coat are washed twice (48,000 xg, 10 mins, resuspension in double-deionized water). The final pellet is quickly frozen (dry ice/ethanol bath) under double-deionized water and stored at -70° C.
On the day of the experiment, thawed synaptic membranes are homogenized with a Brinkmann Polytron (™, Brinkmann Instruments, Westbury, N.Y.) tissue homogenizer in 50 millimolar tris(hydroxymethyl)aminomethane citrate, pH 7.1. The membranes are incubated with 0.04% Sufact-AMPS X100 (™, Pierce, Rockford, Ill.) in buffer for 20 minutes at 37° C. and washed six times by centrifugation (48,000 xg, 10 min) and resuspended in buffer. The final pellet is homogenized at 200 mg wet weight/mL of the buffer for the binding assay.
For [^3 H]-glycine binding at the N-methyl-D-aspartate receptor, 20 nanomolar [^3 H]-glycine (40-60 Ci/mmol, New England Nuclear, Boston, Mass.) is incubated with the membranes suspended in 50 millimolar tris (hydroxymethyl)aminomethane citrate, pH 7.1 for 30 minutes at 4° C. Glycine, 1 millimolar, is used to define the nonspecific binding. […] Radioactivity is estimated by liquid scintillation counting. […]

[5] = test system: neuronal damage in the hippocampus; assay: Test D: ischemia induced by carotid occlusion in the gerbil model; type: in vivo, adult female Mongolian gerbils; conditions: 10 mg/Kg intraperitoneally, 45 minutes before and 5 minutes after occlusion
From the text: as §1
When testing in vivo using the gerbil ischemic model, adult female Mongolian gerbils (50-70 g) are anesthetized with 2 to 3% halothane. The bilateral common carotid arteries at the neck are exposed and occluded with microaneurysm clips. After 10 min (unless specified), the clips are removed and the blood flow through the carotid arteries is restored and the skin is sutured. […] Gross behavioral observations along with motor activity are recorded for 2 hr on the first (24 hr) day following the occlusion. […]
Sections (7 micron) are evaluated from each brain. […] The average brain damage rating score for each group is recorded, and the damage scores of the drug treated group are compared to the vehicle-treated group using Wilcoxon-Rank Sum test. […]

Compound | reversal of the inhibition of the secondary PSs by D-serine [1] | IC50 [2] | IC50 [4] | also measured
O=C(O)c1cc(O)c2ccc(Cl)cc2n1 [7-chlorokynurenic acid] | reversed by D-serine | – | – | inhibition of the secondary PSs [1]: inhibit the secondary PSs
NC(CCCP(=O)(O)O)C(=O)O (stereo not shown) [APV] | not reversed by D-serine | – | – | –
O=C(O)C1CN(CCCP(=O)(O)O)CCN1 (stereo not shown) [CPP] | not reversed by D-serine | – | – | –
O=c1[nH][nH]c(=O)c2c1[nH]c1cc(Cl)ccc12 [Example 1] | – | 13 µM | 0.55 µM | inhibition of the secondary PSs (antagonism) [3]: antagonist; reversal of the inhibition by D-serine [3]: reversible by D-serine; concentration at which glycine antagonism is exhibited [3]: 15.2 µM; neuroprotection (relative to sham-operated control) [5]: 34%
O=c1[nH][nH]c(=O)c2c1[nH]c1cc(Cl)cc(Cl)c12 [Example 4] | – | 6.4 µM | 0.33 µM | inhibition of the secondary PSs (antagonism) [3]: antagonist; reversal of the inhibition by D-serine [3]: reversible by D-serine; concentration at which glycine antagonism is exhibited [3]: 10 µM; neuroprotection (relative to sham-operated control) [5]: over 75%
O=c1[nH][nH]c(=O)c2c1[nH]c1cc(C(F)(F)F)cc(C(F)(F)F)c12 [Example 7, 7,9-Ditrifluoromethylpyridazino[4,5-b]indole-1,4-dione] | – | 69 µM | 2.7 µM | –
NC1CCN(O)C1=O (stereo not shown) [HA-966] | reversed by D-serine | – | – | inhibition of the secondary PSs [1]: inhibit the secondary PSs
C[C@]12N[C@H](Cc3ccccc31)c1ccccc12 [MK-801] | not reversed by D-serine | – | – | –
c1ccc(C2(N3CCCCC3)CCCCC2)cc1 [PCP] | not reversed by D-serine | – | – | –

Reference: patent publication US5652239A, “Pyridazinedione derivatives useful in treatment of neurological disorders” (Imperial Chemical Company, priority 1991, dated 1997)
